Laboratory results from US20250296938A1, “Compounds that Interact with the Ras Superfamily for the Treatment of Cancers, Inflammatory Diseases, Rasopathies, and Fibrotic Disease” (SHY Therapeutics, LLC, priority 2018, published 2025).
Read-outs that look alike come from different tables or passages of the source.

Key:
Assay in all cases: Ras GTP binding domain inhibition assay (Cy3-GTP/Cy5-GTP competition)
KRas G12D mutant = biological target: T1, KRas G12D mutant (Homo sapiens, UniProt P01116, G12D); conditions: 20 μM
T1 construct: fused on or other part: His tag, used for capture on nickel-coated plates
Procedure, shortened: (§1)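 His-tagged Ras proteins were captured on nickel-coated wells in Buffer-I (25 mM Tris-HCl pH 7.4, 27 mM KCl, 137 mM NaCl, 1 mM MgCl2, 1 mM DTT) or Buffer-II (50 mM Tris-HCl pH 7.0). Compounds (20 μM or serial dilution, 1% DMSO) were incubated 3 h at RT, ±Sos(556-1049) in the final hour. Bound Cy3-/Cy5-GTP (100 nM, 45 min) was read after washing.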

KRas Q61H mutant = system: KRas Q61H mutant; parameters: species or system human; conditions: 20 μM; for KRas Q61H mutant + SOS: % inh.: with SOS; for KRas Q61H mutant: % inh.: without SOS
Procedure, shortened: as §1

KRas G12C mutant = system: KRas G12C mutant; parameters: species or system human; conditions: 20 μM; for KRas G12C mutant + SOS: % inh.: with SOS; for KRas G12C mutant: % inh.: without SOS
Procedure, shortened: as §1

KRas wild type = system: KRas wild type; parameters: species or system human; conditions: 20 μM; for KRas wild type + SOS: % inh.: with SOS; for KRas wild type: % inh.: without SOS
Procedure, shortened: as §1

[1] = with SOS, read-out: KRas G-12D mutant + SOS: % inh.
[2] = without SOS, read-out: KRas G12D mutant: % inh.

COc1c(O)nc(-c2ccccn2)nc1Oc1ccccc1 [drawing 813]
inhibition at 20 µM (KRas G12D mutant; [1]): 26 to 50% | inhibition at 20 µM (KRas G12D mutant; [2]): 26 to 50% | KRas Q61H mutant + SOS: % inh. (KRas Q61H mutant): C (51-75% inhibition) | KRas Q61H mutant: % inh. (KRas Q61H mutant): D (76-100% inhibition) | KRas G12C mutant + SOS: % inh. (KRas G12C mutant): C (51-75% inhibition) | KRas G12C mutant: % inh. (KRas G12C mutant): C (51-75% inhibition) | KRas wild type + SOS: % inh. (KRas wild type): B (26-50% inhibition) | KRas wild type: % inh. (KRas wild type): D (76-100% inhibition)

COCCc1ccc(Oc2nc(-c3ccccn3)nc(O)c2OC)cc1 [drawing 814]
inhibition at 20 µM (KRas G12D mutant; [1]): 26 to 50% | inhibition at 20 µM (KRas G12D mutant; [2]): 51 to 75% | KRas Q61H mutant + SOS: % inh. (KRas Q61H mutant): C (51-75% inhibition) | KRas Q61H mutant: % inh. (KRas Q61H mutant): B (26-50% inhibition) | KRas G12C mutant + SOS: % inh. (KRas G12C mutant): B (26-50% inhibition) | KRas G12C mutant: % inh. (KRas G12C mutant): A (1-25% inhibition) | KRas wild type + SOS: % inh. (KRas wild type): B (26-50% inhibition) | KRas wild type: % inh. (KRas wild type): D (76-100% inhibition)

COc1ccc(Oc2nc(-c3ccccn3)nc(O)c2OC)cc1 [drawing 815]
inhibition at 20 µM (KRas G12D mutant; [1]): 26 to 50% | inhibition at 20 µM (KRas G12D mutant; [2]): 76 to 100% | KRas Q61H mutant + SOS: % inh. (KRas Q61H mutant): C (51-75% inhibition) | KRas Q61H mutant: % inh. (KRas Q61H mutant): D (76-100% inhibition) | KRas G12C mutant + SOS: % inh. (KRas G12C mutant): C (51-75% inhibition) | KRas G12C mutant: % inh. (KRas G12C mutant): D (76-100% inhibition) | KRas wild type + SOS: % inh. (KRas wild type): B (26-50% inhibition) | KRas wild type: % inh. (KRas wild type): D (76-100% inhibition)

Oc1nc(-c2cn3ccccc3n2)nc2c(-c3ccccn3)csc12 [drawing 816]
inhibition at 20 µM (KRas G12D mutant; [1]): 1 to 25% | inhibition at 20 µM (KRas G12D mutant; [2]): 26 to 50% | KRas Q61H mutant + SOS: % inh. (KRas Q61H mutant): B (26-50% inhibition) | KRas Q61H mutant: % inh. (KRas Q61H mutant): B (26-50% inhibition) | KRas G12C mutant + SOS: % inh. (KRas G12C mutant): B (26-50% inhibition) | KRas G12C mutant: % inh. (KRas G12C mutant): B (26-50% inhibition) | KRas wild type + SOS: % inh. (KRas wild type): A (1-25% inhibition) | KRas wild type: % inh. (KRas wild type): C (51-75% inhibition)

O=C(NCc1ccccc1)c1nc(-c2ccccn2)nc(O)c1O [drawing 821]
inhibition at 20 µM (KRas G12D mutant; [1]): 51 to 75% | inhibition at 20 µM (KRas G12D mutant; [2]): 51 to 75% | KRas Q61H mutant + SOS: % inh. (KRas Q61H mutant): C (51-75% inhibition) | KRas Q61H mutant: % inh. (KRas Q61H mutant): D (76-100% inhibition) | KRas G12C mutant + SOS: % inh. (KRas G12C mutant): C (51-75% inhibition) | KRas G12C mutant: % inh. (KRas G12C mutant): B (26-50% inhibition) | KRas wild type + SOS: % inh. (KRas wild type): B (26-50% inhibition) | KRas wild type: % inh. (KRas wild type): D (76-100% inhibition)

COC1CCN(c2nc(-c3nccn3C)nc3sc(Br)c(-c4ccccc4)c23)C1 (stereo not drawn) [drawing 822]
inhibition at 20 µM (KRas G12D mutant; [1]): 51 to 75% | inhibition at 20 µM (KRas G12D mutant; [2]): 26 to 50% | KRas Q61H mutant + SOS: % inh. (KRas Q61H mutant): C (51-75% inhibition) | KRas Q61H mutant: % inh. (KRas Q61H mutant): B (26-50% inhibition) | KRas G12C mutant + SOS: % inh. (KRas G12C mutant): D (76-100% inhibition) | KRas G12C mutant: % inh. (KRas G12C mutant): B (26-50% inhibition) | KRas wild type + SOS: % inh. (KRas wild type): D (76-100% inhibition) | KRas wild type: % inh. (KRas wild type): C (51-75% inhibition)

Cn1ccnc1-c1nc(O)c(O)c(C(=O)NC2CCC2)n1 [drawing 825]
inhibition at 20 µM (KRas G12D mutant; [1]): 26 to 50% | inhibition at 20 µM (KRas G12D mutant; [2]): 51 to 75% | KRas Q61H mutant + SOS: % inh. (KRas Q61H mutant): C (51-75% inhibition) | KRas Q61H mutant: % inh. (KRas Q61H mutant): C (51-75% inhibition) | KRas G12C mutant + SOS: % inh. (KRas G12C mutant): B (26-50% inhibition) | KRas G12C mutant: % inh. (KRas G12C mutant): C (51-75% inhibition) | KRas wild type + SOS: % inh. (KRas wild type): B (26-50% inhibition) | KRas wild type: % inh. (KRas wild type): C (51-75% inhibition)

Cn1ccnc1-c1nc(O)c(O)c(C(=O)N2CCCCC2)n1 [drawing 826]
inhibition at 20 µM (KRas G12D mutant; [1]): 1 to 25% | inhibition at 20 µM (KRas G12D mutant; [2]): 26 to 50% | KRas Q61H mutant + SOS: % inh. (KRas Q61H mutant): B (26-50% inhibition) | KRas Q61H mutant: % inh. (KRas Q61H mutant): B (26-50% inhibition) | KRas G12C mutant + SOS: % inh. (KRas G12C mutant): A (1-25% inhibition) | KRas G12C mutant: % inh. (KRas G12C mutant): B (26-50% inhibition) | KRas wild type + SOS: % inh. (KRas wild type): A (1-25% inhibition) | KRas wild type: % inh. (KRas wild type): C (51-75% inhibition)

Cn1ccnc1-c1nc(O)c(O)c(C(=O)NC2CCCC2)n1 [drawing 827]
inhibition at 20 µM (KRas G12D mutant; [1]): 26 to 50% | inhibition at 20 µM (KRas G12D mutant; [2]): 51 to 75% | KRas Q61H mutant + SOS: % inh. (KRas Q61H mutant): C (51-75% inhibition) | KRas Q61H mutant: % inh. (KRas Q61H mutant): C (51-75% inhibition) | KRas G12C mutant + SOS: % inh. (KRas G12C mutant): B (26-50% inhibition) | KRas G12C mutant: % inh. (KRas G12C mutant): C (51-75% inhibition) | KRas wild type + SOS: % inh. (KRas wild type): B (26-50% inhibition) | KRas wild type: % inh. (KRas wild type): C (51-75% inhibition)
